Assay results as given in US8536351B2, “2-aryl-5-heterocyclyl-cyclohexane-1,3,dione compounds and their use as herbicides” (Syngenta Crop Protection LLC, priority 2007, dated 2013).

Tests used:
Type in all cases: in vivo
Avena fatua (AVEFA) [1] = experiment: Post-emergence activity, glasshouse pot test (100=total damage to plant; 0=no damage to plant); conditions: 336 h, evaluated 14 or 15 days after spraying; for pest or weed control at 500 g/ha: rate 500 g/ha; for pest or weed control at 125 g/ha: rate 125 g/ha
Protocol: (§1) Monocotyledonous and dicotyledonous test plants were sown in standard soil in pots. After cultivation for one day (pre-emergence) or after 10 days cultivation (post-emergence) under controlled conditions in a glasshouse, the plants were sprayed with an aqueous spray solution derived from the formulation of the technical active ingredient in 0.6 ml acetone and 45 ml formulation solution containing 10.6% Emulsogen EL (Registry number 61791-12-6), 42.2% N-methyl pyrrolidone, 42.2% dipropylene glycol monomethyl ether (Registry number 34590-94-8) and 0.2% X-77 (Registry number 11097-66-8). The test plants were then grown in a greenhouse under optimum conditions until, 14 or 15 days later for post-emergence and 19, 20 or 21 days for pre-emergence, the test was evaluated (100=total damage to plant; 0=no damage to plant). Alopecurus myosuroides (ALOMY), Avena fatua (AVEFA), Lolium perenne (LOLPE), Setaria faberi (SETFA), Digitaria sanguinalis (DIGSA), Echinochloa crus-galli (ECHCG) Post-Emergence Activity

[2] = tested on: Digitaria sanguinalis (DIGSA); experiment: as above; conditions: evaluated 14 or 15 days after spraying; for pest or weed control at 500 g/ha: rate 500 g/ha; for pest or weed control at 125 g/ha: rate 125 g/ha
Protocol: as §1

[3] = tested on: Echinochloa crus-galli (ECHCG); experiment: as above; conditions: evaluated 14 or 15 days after spraying; for pest or weed control at 500 g/ha: rate 500 g/ha; for pest or weed control at 125 g/ha: rate 125 g/ha
Protocol: as §1

Lolium perenne (LOLPE) [4] = experiment: as above; conditions: 336 h, evaluated 14 or 15 days after spraying; for pest or weed control at 500 g/ha: rate 500 g/ha; for pest or weed control at 125 g/ha: rate 125 g/ha
Protocol: as §1

Setaria faberi (SETFA) [5] = experiment: as above; conditions: evaluated 14 or 15 days after spraying; for pest or weed control at 500 g/ha: rate 500 g/ha; for pest or weed control at 125 g/ha: rate 125 g/ha
Protocol: as §1

[6] = tested on: Alopecurus myosuroides (ALOMY); experiment: as above; conditions: 336 h, evaluated 14 or 15 days after spraying; for pest or weed control at 500 g/ha: rate 500 g/ha; for pest or weed control at 125 g/ha: rate 125 g/ha
Protocol: as §1

Avena fatua (AVEFA) [7] = experiment: Pre-emergence activity, glasshouse pot test (100=total damage to plant; 0=no damage to plant); conditions: rate 500 g/ha, evaluated 19, 20 or 21 days after spraying
Protocol: as §1, with “Pre-Emergence” for “Post-Emergence”

[8] = tested on: Digitaria sanguinalis (DIGSA); experiment: as above; conditions: rate 500 g/ha, evaluated 19, 20 or 21 days after spraying
Protocol: as §1, with “Pre-Emergence” for “Post-Emergence”

[9] = tested on: Echinochloa crus-galli (ECHCG); experiment: as above; conditions: rate 500 g/ha, evaluated 19, 20 or 21 days after spraying
Protocol: as §1, with “Pre-Emergence” for “Post-Emergence”

Lolium perenne (LOLPE) [10] = experiment: as above; conditions: rate 500 g/ha, evaluated 19, 20 or 21 days after spraying
Protocol: as §1, with “Pre-Emergence” for “Post-Emergence”

Setaria faberi (SETFA) [11] = experiment: as above; conditions: rate 500 g/ha, evaluated 19, 20 or 21 days after spraying
Protocol: as §1, with “Pre-Emergence” for “Post-Emergence”

[12] = tested on: Alopecurus myosuroides (ALOMY); experiment: as above; conditions: rate 500 g/ha, evaluated 19, 20 or 21 days after spraying
Protocol: as §1, with “Pre-Emergence” for “Post-Emergence”

| Compound | pest or weed control at 500 g/ha (Avena fatua (AVEFA) [1]) [%] | pest or weed control at 500 g/ha [2] [%] | pest or weed control at 500 g/ha [3] [%] | pest or weed control at 500 g/ha (Lolium perenne (LOLPE) [4]) [%] | pest or weed control at 500 g/ha (Setaria faberi (SETFA) [5]) [%] | pest or weed control at 500 g/ha [6] [%] | pest or weed control at 500 g/ha (Avena fatua (AVEFA) [7]) [%] | pest or weed control at 500 g/ha [8] [%] | pest or weed control at 500 g/ha [9] [%] | pest or weed control at 500 g/ha (Lolium perenne (LOLPE) [10]) [%] | pest or weed control at 500 g/ha (Setaria faberi (SETFA) [11]) [%] | pest or weed control at 500 g/ha [12] [%] | pest or weed control at 125 g/ha (Avena fatua (AVEFA) [1]) [%] | pest or weed control at 125 g/ha [2] [%] | pest or weed control at 125 g/ha [3] [%] | pest or weed control at 125 g/ha (Lolium perenne (LOLPE) [4]) [%] | pest or weed control at 125 g/ha (Setaria faberi (SETFA) [5]) [%] | pest or weed control at 125 g/ha [6] [%] |
| --- | --- | --- | --- | --- | --- | --- | --- | --- | --- | --- | --- | --- | --- | --- | --- | --- | --- | --- |
| CC(=O)OC1=C(c2c(C)cc(C)cc2C)C(=O)CC(C2CCOC2)C1 (stereo not drawn) [Compound P1, 3-oxo-5-(tetrahydrofuran-3-yl)-2-(2,4,6-trimethylphenyl)cyclohex-1-enyl acetate] | 20 | 80 | 70 | 80 | 70 | 80 | 20 | 60 | 30 | 70 | 0 | 60 | – | – | – | – | – | – |
| CCc1cc(C)cc(CC)c1C1=C(OC(C)=O)CC(C2CCCS(=O)(=O)C2)CC1=O (stereo not drawn) [Compound P2] | – | – | – | – | – | – | 100 | 100 | 100 | 80 | 100 | 90 | 20 | 90 | 20 | 0 | 20 | 10 |
| CCc1cc(C)cc(CC)c1C1=C(OC(=O)C(C)(C)C)CC(C2CCS(=O)(=O)CC2)CC1=O (stereo not drawn) [Compound P3] | – | – | – | – | – | – | 80 | 100 | 100 | 90 | 90 | 90 | 30 | 70 | 60 | 0 | 60 | 70 |
| CCc1cc(C)cc(CC)c1C1=C(O)CC(C2CCOCC2)CC1=O (stereo not drawn) [Compound T2, 2-(2,6-diethyl-4-methylphenyl)-5-(tetrahydropyran-4-yl)cyclohexane-1,3-dione] | 100 | 100 | 100 | 90 | 90 | 90 | 100 | 100 | 90 | 100 | 100 | 100 | – | – | – | – | – | – |
| Cc1cc(C)c(C2=C(O)CC(C3CCOCC3)CC2=O)c(C)c1 (stereo not drawn) [Compound T3] | 90 | 80 | 100 | 100 | 90 | 100 | 90 | 100 | 100 | 100 | 60 | 90 | – | – | – | – | – | – |
| CCc1cc(C)cc(CC)c1C1=C(O)CC(C2CCOC2)CC1=O (stereo not drawn) [Compound T4, 2-(2,6-diethyl-4-methylphenyl)-5-(tetrahydrofuran-3-yl)cyclohexane-1,3-dione] | 100 | 100 | 80 | 100 | 100 | 100 | 70 | 90 | 100 | 100 | 100 | 100 | – | – | – | – | – | – |
| CCc1ccc(-c2ccc(Cl)cc2)cc1C1=C(O)CC(C2CCOC2)CC1=O (stereo not drawn) [Compound T6] | 90 | 100 | 100 | 100 | 100 | 100 | 20 | 100 | 100 | 100 | 100 | 90 | – | – | – | – | – | – |
| Cc1ccc(-c2ccc(Cl)cc2)cc1C1=C(O)CC(C2CCOC2)CC1=O (stereo not drawn) [Compound T7] | 90 | 100 | 100 | 80 | 100 | 90 | 30 | 100 | 100 | 100 | 100 | 70 | – | – | – | – | – | – |
| CCc1ccc(-c2ccc(Cl)cc2)cc1C1=C(O)CC(C2CCOCC2)CC1=O (stereo not drawn) [Compound T8] | 70 | 90 | 90 | 100 | 90 | 80 | 60 | 100 | 100 | 80 | 100 | 100 | – | – | – | – | – | – |
| Cc1ccc(-c2ccc(Cl)cc2)cc1C1=C(O)CC(C2CCOCC2)CC1=O (stereo not drawn) [Compound T9] | 70 | 90 | 100 | 100 | 80 | 80 | 60 | 80 | 100 | 100 | 100 | 60 | – | – | – | – | – | – |
| Cc1cc(C)c(C2=C(O)CC(C3CCOC3)CC2=O)c(C)c1 (stereo not drawn) [Compound T10] | 60 | 90 | 90 | 80 | 80 | 80 | 50 | 80 | 80 | – | 70 | 90 | – | – | – | – | – | – |
| CCc1cc(C)cc(C)c1C1=C(O)CC(C2CCOC2)CC1=O (stereo not drawn) [Compound T11] | 90 | 100 | 100 | 90 | 100 | 90 | 70 | 100 | 100 | 80 | 100 | 80 | – | – | – | – | – | – |
| CCc1cc(C)cc(C)c1C1=C(O)CC(C2CCOCC2)CC1=O (stereo not drawn) [Compound T12] | 90 | 100 | 100 | 90 | 100 | 90 | 90 | 100 | 100 | 100 | 100 | 90 | – | – | – | – | – | – |
| CCc1cc(C)cc(CC)c1C1=C(O)CC(C2CC[S+]([O-])CC2)CC1=O (stereo not drawn) [Compound T22] | 90 | 100 | 80 | 80 | 100 | 90 | 90 | – | 70 | 90 | – | 90 | – | – | – | – | – | – |
